Drawing on patent publication US10065970B2 (Genentech, Inc., priority 2015, dated 2018), this text covers Ki for 15 molecules.

Where only a bound is given, the exact number is not on record here.

Chain of PI3Kα (alpha) (P42336 whole entry): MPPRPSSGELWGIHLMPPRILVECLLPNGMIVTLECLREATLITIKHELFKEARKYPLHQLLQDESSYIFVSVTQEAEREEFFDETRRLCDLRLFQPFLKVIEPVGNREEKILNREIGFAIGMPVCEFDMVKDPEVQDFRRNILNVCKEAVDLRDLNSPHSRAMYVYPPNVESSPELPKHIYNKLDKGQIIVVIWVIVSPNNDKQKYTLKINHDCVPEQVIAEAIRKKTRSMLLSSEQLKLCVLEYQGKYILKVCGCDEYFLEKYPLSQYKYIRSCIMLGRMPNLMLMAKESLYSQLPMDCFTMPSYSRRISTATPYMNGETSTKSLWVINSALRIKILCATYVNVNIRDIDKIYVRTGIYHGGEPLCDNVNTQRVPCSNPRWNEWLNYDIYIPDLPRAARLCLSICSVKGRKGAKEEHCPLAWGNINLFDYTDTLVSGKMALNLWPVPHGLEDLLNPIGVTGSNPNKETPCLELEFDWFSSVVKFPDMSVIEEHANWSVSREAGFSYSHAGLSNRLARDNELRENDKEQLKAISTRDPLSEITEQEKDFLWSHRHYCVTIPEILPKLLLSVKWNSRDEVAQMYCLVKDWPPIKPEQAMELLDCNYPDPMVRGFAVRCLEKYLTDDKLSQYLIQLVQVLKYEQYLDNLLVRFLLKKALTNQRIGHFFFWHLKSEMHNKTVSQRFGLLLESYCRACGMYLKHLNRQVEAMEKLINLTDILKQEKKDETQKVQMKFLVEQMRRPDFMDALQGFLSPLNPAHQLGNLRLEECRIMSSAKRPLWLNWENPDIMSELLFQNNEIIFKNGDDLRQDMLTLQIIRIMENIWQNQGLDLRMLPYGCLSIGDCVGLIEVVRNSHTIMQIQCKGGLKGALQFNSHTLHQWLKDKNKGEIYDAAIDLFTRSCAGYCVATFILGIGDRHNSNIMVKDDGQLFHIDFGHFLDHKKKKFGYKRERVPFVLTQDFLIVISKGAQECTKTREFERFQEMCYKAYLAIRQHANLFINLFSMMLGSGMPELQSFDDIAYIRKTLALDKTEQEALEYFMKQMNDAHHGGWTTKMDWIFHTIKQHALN
Chain of PI3Kα (alpha) (P27986 whole entry partner): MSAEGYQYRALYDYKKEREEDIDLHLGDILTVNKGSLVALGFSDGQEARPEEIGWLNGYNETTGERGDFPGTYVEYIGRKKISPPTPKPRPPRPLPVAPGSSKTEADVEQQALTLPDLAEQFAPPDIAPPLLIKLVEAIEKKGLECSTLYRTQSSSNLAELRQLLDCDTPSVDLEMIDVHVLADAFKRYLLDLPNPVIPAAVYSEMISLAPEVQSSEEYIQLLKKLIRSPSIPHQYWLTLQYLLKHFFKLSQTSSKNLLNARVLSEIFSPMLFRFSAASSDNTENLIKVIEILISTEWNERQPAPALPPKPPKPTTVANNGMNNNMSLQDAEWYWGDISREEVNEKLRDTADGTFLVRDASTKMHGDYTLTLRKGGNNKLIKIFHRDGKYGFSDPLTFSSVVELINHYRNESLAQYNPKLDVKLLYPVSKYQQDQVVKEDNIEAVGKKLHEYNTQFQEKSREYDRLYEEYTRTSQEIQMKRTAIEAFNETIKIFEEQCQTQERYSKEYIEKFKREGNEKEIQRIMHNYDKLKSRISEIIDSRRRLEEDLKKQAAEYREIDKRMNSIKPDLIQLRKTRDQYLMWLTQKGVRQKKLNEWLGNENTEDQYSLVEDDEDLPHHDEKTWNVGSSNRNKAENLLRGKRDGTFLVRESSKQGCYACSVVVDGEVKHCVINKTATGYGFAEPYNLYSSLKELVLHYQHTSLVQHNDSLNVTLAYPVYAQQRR

One experiment deals with PI3Kα (alpha) (Homo sapiens (Human), UniProt P42336). Description: p110α (alpha) PI3K Binding Assay (ADP-Glo lipid kinase reaction). Type of experiment: biochemical. Conditions: PI3K alpha 0.2 nM, ATP 40 μM, PIP2:3PS 50 μM, 120 min, room temperature; Ki by Morrison Equation; read-out: PI3Kα-(alpha) ATP (Ki) micromolar. The method in brief:
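Enzyme with PIP2:3PS lipid substrate and ATP/MgCl2 in 50 mM HEPES, 50 mM NaCl, 3 mM MgCl2, 0.01% BSA, 1% DMSO, 120 min at room temperature. ADP formed detected by ADP-Glo luminescence. Ki from 10-point dose-response curves via the Morrison equation.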
In general terms: ADP-Glo turns the ADP formed in a reaction into a luminescent signal.
The Ki is a dissociation constant, usually derived from enzyme kinetics or from competition with a known ligand. For the molecule `CC[C@H](Oc1cc2c3c(c1)nc(-c1cc(F)c4oc(N)nc4c1)n3CCCCO2)C(N)=O` [Example 272, (S)-2-((1-(2-Amino-7-fluorobenzo[d]oxazol-5-yl)-7,8,9,10-tetrahydro-6-oxa-2,10a-diazacycloocta[cd]inden-4-yl)oxy)butanamide], the Ki was less than 0.02 nM.
With `CC[C@H](Oc1cc2c3c(c1)nc(-c1cc(F)c4nc(N)sc4c1)n3CCCCO2)C(N)=O` [Example 273, (S)-2-((1-(2-Amino-4-fluorobenzo[d]thiazol-6-yl)-7,8,9,10-tetrahydro-6-oxa-2,10a-diazacycloocta[cd]inden-4-yl)oxy)butanamide], the Ki worked out at 0.0494 nM.
In the case of `C[C@H](Oc1cc2c3c(c1)nc(-c1ccc4nc(N)sc4c1)n3CCCO2)C(N)=O` [Example 274, (S)-2-((1-(2-Aminobenzo[d]thiazol-6-yl)-8,9-dihydro-7H-6-oxa-2,9a-diazabenzo[cd]azulen-4-yl)oxy)propanamide], the Ki stood at 2.1 nM.
`C[C@H](Oc1cc2c3c(c1)nc(-c1cc(F)c4sc(N)nc4c1)n3CCCCO2)C(N)=O` [Example 285, (S)-2-((1-(2-Amino-7-fluorobenzo[d]thiazol-5-yl)-7,8,9,10-tetrahydro-6-oxa-2,10a-diazacycloocta[cd]inden-4-yl)oxy)propanamide]: the Ki turned out to be 0.062 nM.
On the same count and under the same terms, for `C[C@H](Oc1cc2c3c(c1)nc(-c1ccc4nc(N)nnc4c1)n3CCCCO2)C(N)=O` [Example 292, (S)-2-((1-(3-Aminobenzo[e][1,2,4]triazin-7-yl)-7,8,9,10-tetrahydro-6-oxa-2,10a-diazacycloocta[cd]inden-4-yl)oxy)propanamide] the value was 0.024 nM; for `C[C@H](Oc1cc2c3c(c1)nc(-c1ccc(-c4ncn[nH]4)cc1F)n3CCCCO2)C(N)=O` [Example 293, (S)-2-((1-(2-Fluoro-4-(1H-1,2,4-triazol-3-yl)phenyl)-7,8,9,10-tetrahydro-6-oxa-2,10a-diazacycloocta[cd]inden-4-yl)oxy)propanamide], 0.0222 nM; for `NC(=O)[C@@H]1[C@@H](F)CCN1c1cc2c3c(c1)nc(-c1ccc4oc(N)nc4c1)n3CCCCO2` [Example 294, (2R,3S)-1-(1-(2-Aminobenzo[d]oxazol-5-yl)-7,8,9,10-tetrahydro-6-oxa-2,10a-diazacycloocta[cd]inden-4-yl)-3-fluoropyrrolidine-2-carboxamide], less than 0.02 nM.
On the same count and under the same terms, the value for `CC[C@H](Oc1cc2c3c(c1)nc(-c1cc(F)c(-c4ncn[nH]4)cc1F)n3CCCCO2)C(N)=O` [Example 295, (S)-2-((1-(2,5-Difluoro-4-(1H-1,2,4-triazol-5-yl)phenyl)-7,8,9,10-tetrahydro-6-oxa-2,10a-diazacycloocta[cd]inden-4-yl)oxy)butanamide] was 0.053 nM.
Still for that read-out and setting: for `C[C@H](Oc1cc2c3c(c1)nc(-c1ccc(-c4ncn[nH]4)cn1)n3CCCCO2)C(N)=O` [Example 296, (S)-2-((1-(5-(1H-1,2,4-Triazol-5-yl)pyridin-2-yl)-7,8,9,10-tetrahydro-6-oxa-2,10a-diazacycloocta[cd]inden-4-yl)oxy)propanamide] the value was less than 0.02 nM; for `C[C@H](Oc1cc2c3c(c1)nc(-c1ccc4oc(N)nc4c1)n3CCCCO2)C(=O)O` [Example 297, (S)-2-((1-(2-Aminobenzo[d]oxazol-5-yl)-7,8,9,10-tetrahydro-6-oxa-2,10a-diazacycloocta[cd]inden-4-yl)oxy)propanoic acid], 2.23 nM; for `C[C@H](Oc1cc2c3c(c1)nc(-c1cnc(-c4ncn[nH]4)c(F)c1)n3CCCCO2)C(N)=O` [Example 307, (S)-2-((1-(5-Fluoro-6-(1H-1,2,4-triazol-5-yl)pyridin-3-yl)-7,8,9,10-tetrahydro-6-oxa-2,10a-diazacycloocta[cd]inden-4-yl)oxy)propanamide], less than 0.02 nM.
With `C[C@H]1CCN(c2cc3c4c(c2)nc(-c2ccc5oc(N)nc5c2)n4CCCCO3)[C@@H]1C(N)=O` [Example 309, (2S,3S)-1-(1-(2-Aminobenzo[d]oxazol-5-yl)-7,8,9,10-tetrahydro-6-oxa-2,10a-diazacycloocta[cd]inden-4-yl)-3-methylpyrrolidine-2-carboxamide], the Ki was 0.04 nM.
Still for that read-out and setting: for `CO[C@@H]1CCN(c2cc3c4c(c2)nc(-c2ccc5oc(N)nc5c2)n4CCCCO3)[C@@H]1C(N)=O` [Example 310, (2S,3R)-1-(1-(2-Aminobenzo[d]oxazol-5-yl)-7,8,9,10-tetrahydro-6-oxa-2,10a-diazacycloocta[cd]inden-4-yl)-3-methoxypyrrolidine-2-carboxamide] the value was 0.171 nM; for `CC[C@H](Oc1cc2c3c(c1)nc(-c1ccc4oc(N)nc4c1)n3CCCCO2)C(=O)O` [Example 313, (S)-2-((1-(2-Aminobenzo[d]oxazol-5-yl)-7,8,9,10-tetrahydro-6-oxa-2,10a-diazacycloocta[cd]inden-4-yl)oxy)butanoic acid], 2.09 nM.

Still in this experiment, the particulars now being: read-out: PI3Kα-(alpha) ATP (Ki) micromolar.
Turning to `C[C@H]1CCN(c2cc3c4c(c2)nc(-c2ccc5oc(N)nc5c2)n4CCCO3)[C@@H]1C(N)=O` [Example 308, (2S,3S)-1-(1-(2-Aminobenzo[d]oxazol-5-yl)-8,9-dihydro-7H-6-oxa-2,9a-diazabenzo[cd]azulen-4-yl)-3-methylpyrrolidine-2-carboxamide], the Ki was determined as 0.627 nM.
